Source: article PMC9551036, “A selective and orally bioavailable VHL-recruiting PROTAC achieves SMARCA2 degradation in vivo” (Nature Communications, 2022)
Values joined by “and” are separate entries in the source; they are usually repeats but may differ in a detail not shown here. Identical values can stand only once. Like-named read-outs stand apart in the source and are kept apart here.

Columns and labels:
[1] = target: T1, VCB: PROTAC: SMARCA2^BD ternary complex (Homo sapiens, UniProt P51531); experiment: TR-FRET ternary complex affinity and cooperativity, SMARCA2; assay type: binding
T1 construct: P51531-2, residues 1373-1493 with additional N-terminal SM residues; GST (TEV site) (N); His6 (TEV site) (N, cleaved yes); made in house; host or cells: SMARCA2^BD: Escherichia coli BL21(DE3)
T1 sequence (P51531 with tags, fused parts or gaps isoform P51531-2): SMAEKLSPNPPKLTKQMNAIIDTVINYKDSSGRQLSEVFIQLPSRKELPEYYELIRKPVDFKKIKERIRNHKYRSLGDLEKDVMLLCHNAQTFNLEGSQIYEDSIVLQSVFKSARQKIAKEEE

[2] = target: T2, (Homo sapiens, UniProt P51532); experiment: TR-FRET ternary complex affinity and cooperativity, SMARCA4; assay type: binding
T2 construct: P51532, residues 1448–1569 with additional N-terminal SM residues; GST (TEV site) (N); His6 (TEV site) (N, cleaved yes); made in house; host or cells: SMARCA4^BD: Escherichia coli BL21(DE3)
T2 sequence (P51532 1448-1569): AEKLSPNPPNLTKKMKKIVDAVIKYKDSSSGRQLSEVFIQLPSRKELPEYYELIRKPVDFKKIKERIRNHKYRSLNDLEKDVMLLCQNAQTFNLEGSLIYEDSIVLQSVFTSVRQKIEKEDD

[3] = target: T3, SMARCA4 (Homo sapiens, UniProt P51532); experiment: SMARCA4 capillary electrophoresis protein assay in RKO cells; assay type: cell-based; design: endogenous in cells; host or cells: RKO, HCT116, LU99, HCC-364, HCT-15, HCC4006, SK-N-AS; conditions: mean ± SD
T3 sequence (P51532 whole entry): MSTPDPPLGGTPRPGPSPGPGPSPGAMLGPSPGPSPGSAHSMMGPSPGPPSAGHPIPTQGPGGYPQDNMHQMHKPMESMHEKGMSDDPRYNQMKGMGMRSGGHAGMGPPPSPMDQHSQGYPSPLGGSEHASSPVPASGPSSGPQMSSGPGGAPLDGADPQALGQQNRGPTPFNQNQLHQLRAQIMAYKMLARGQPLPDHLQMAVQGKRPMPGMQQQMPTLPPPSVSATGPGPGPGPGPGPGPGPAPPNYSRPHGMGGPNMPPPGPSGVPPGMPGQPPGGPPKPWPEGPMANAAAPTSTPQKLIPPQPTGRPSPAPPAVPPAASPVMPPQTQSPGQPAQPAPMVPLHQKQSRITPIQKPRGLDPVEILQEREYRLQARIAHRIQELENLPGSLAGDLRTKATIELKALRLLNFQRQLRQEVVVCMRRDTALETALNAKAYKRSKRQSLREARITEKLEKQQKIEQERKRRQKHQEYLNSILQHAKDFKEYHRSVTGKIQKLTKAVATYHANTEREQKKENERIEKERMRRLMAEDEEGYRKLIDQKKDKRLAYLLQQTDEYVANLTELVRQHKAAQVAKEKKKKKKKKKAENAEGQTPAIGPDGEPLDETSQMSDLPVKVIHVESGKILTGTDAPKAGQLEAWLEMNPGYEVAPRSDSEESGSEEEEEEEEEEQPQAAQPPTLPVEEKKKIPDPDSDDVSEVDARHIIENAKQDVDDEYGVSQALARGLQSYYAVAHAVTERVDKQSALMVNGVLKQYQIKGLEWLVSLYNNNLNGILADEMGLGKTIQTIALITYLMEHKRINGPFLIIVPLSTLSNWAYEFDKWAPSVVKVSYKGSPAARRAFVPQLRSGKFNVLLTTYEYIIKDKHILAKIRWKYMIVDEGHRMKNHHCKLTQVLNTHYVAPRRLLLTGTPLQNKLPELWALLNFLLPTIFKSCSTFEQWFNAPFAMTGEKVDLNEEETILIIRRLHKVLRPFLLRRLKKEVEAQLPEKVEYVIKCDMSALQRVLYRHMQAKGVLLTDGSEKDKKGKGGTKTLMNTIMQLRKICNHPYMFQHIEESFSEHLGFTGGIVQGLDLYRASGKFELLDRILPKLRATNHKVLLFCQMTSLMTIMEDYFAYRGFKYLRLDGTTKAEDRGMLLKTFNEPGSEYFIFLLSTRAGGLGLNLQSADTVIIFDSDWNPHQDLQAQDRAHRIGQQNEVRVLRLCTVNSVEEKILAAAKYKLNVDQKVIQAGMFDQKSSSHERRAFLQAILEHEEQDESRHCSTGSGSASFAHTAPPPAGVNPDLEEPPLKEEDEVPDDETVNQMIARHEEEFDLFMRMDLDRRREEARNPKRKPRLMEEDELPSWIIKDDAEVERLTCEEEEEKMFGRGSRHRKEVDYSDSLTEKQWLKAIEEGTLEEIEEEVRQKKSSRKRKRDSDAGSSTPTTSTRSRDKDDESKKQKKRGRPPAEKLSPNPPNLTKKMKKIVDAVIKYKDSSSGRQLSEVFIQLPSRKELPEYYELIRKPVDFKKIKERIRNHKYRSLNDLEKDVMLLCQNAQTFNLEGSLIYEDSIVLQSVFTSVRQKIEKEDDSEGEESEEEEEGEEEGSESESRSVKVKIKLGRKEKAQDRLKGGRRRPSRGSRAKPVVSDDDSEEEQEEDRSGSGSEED
Experimental: 130,000–200,000 cells were seeded in 24-well plates and incubated until settled down or overnight. Compounds were dissolved in DMSO and added to cells in indicated concentrations using a digital dispenser following an optional media change. Cells were incubated for 4 or 18 h as indicated. For SMARCA2/4 half-life determination, 150,000 or 200,000 cells were seeded in 24-well plates. The next day, 50 µg/ml cycloheximide (Sigma) was added and cells were incubated for 1–24 h. For SMARCA2/4 re-synthesis measurements, 200,000 cells were seeded in 24-well plates. The next day, 100 nM compound 6 was added for 4 h to degrade SMARCA2/4, and a sample was taken as baseline for normalisation. To allow re-synthesis, a VHL binder (compound 32, 25 or 50 µM) was then added for 3 or 24 h. Medium was removed, cells were washed with PBS and lysed with 80 µl Lysis Buffer (MSD Tris Lysis Buffer (#R60TX-2) + Halt Inhibitor Cocktail (100x) + Benzonase 0.5 µL/ml). Samples were frozen at −80 °C and thawed at room temperature before use. Samples were transferred to a V-bottom plate and insoluble debris was pelleted by centrifugation for 5 min at maximum speed. The supernatant was transferred to a fresh plate. Master Mix and Ladder were prepared according to manufacturer’s instructions for 12–230 kDa Wes Separation Module, 8 × 25 capillary cartridges, Protein Simple #SM-W004 with Anti-Rabbit Detection Module for Wes, Peggy Sue or Sally Sue, Protein Simple #DM-001. 4.8 µl lysate were mixed with 1.2 µl Master Mix to achieve a protein concentration of ~0.5 µg/µl. Antibodies were diluted in Antibody Diluent II (SMARCA2 Sigma #HPA029981 RRID:AB_10602406 1:25–100, SMARCA4 Cell Signalling #49360 clone D1Q7F RRID:AB_2728743 1:15–120 or Abcam #ab110641 clone EPNCIR111A RRID:AB_10861578 1:60, GAPDH Abcam #ab9485 RRID:AB_307275 1:250). Wes plates were prepared and run according to manufacturer’s instructions. Proteins were quantified with accompanying Compass Software. SMARCA2/4 protein levels were normalised to GAPDH. […] Where applicable, curves were fitted using a 4-parametric logistic model.

[4] = target: T3, SMARCA4; experiment: Imaging-based SMARCA4 protein assay in RKO cells; assay type: cell-based; design: endogenous in cells; host or cells: RKO, HCT116, LU99, HCC-364, HCT-15, HCC4006, SK-N-AS; conditions: individual replicates
Experimental: 1250 cells per well in 60 µl medium were plated in flat bottom, poly-lysin coated 384-well plates (CellCarrier Ultra, Perkin Elmer). The next day, test compounds (10 µl of serial dilutions) and DMSO controls were diluted in DMEM medium such that the final DMSO content was <1% or were added using an ultrasound dispensing system. 4 wells were reserved for a background measurement. […] After aspirating the fixing solution, the cells were washed once with 25 µl PBS. 25 µl of blocking buffer (10% goat serum in PBS) was added and cells were incubated for 30 min, then washed once with PBS. Cells were stained with 20 µl of SMARCA2/4 primary antibody solution (Sigma #HPA029981 RRID:AB_10602406 1:1000 or Cell Signalling #52251 clone E9O6 RRID:AB_2799410 1:1000 in PBS with 10% FCS) for 2–4 h at room temperature. Cells were again washed once with PBS. […] The cell layer was then washed once with 25 µl PBS, the wells were filled with 25 µl PBS and the plates were sealed with an adhesive sheet. They were then imaged on the Opera Phoenix (mean intensity in the nucleus). Results were computed as percent of controls ((value of test compound − background)/(value of the negative control DMSO—background) multiplied by 100). EC50 values were computed using a 4-parametric logistic model.

[5] = target: VCB: PROTAC: SMARCA4^BD ternary complex (Homo sapiens, UniProt P40337+P51532); experiment: TR-FRET ternary complex affinity and cooperativity, SMARCA4; assay type: binding; design: P51532, residues 1448–1569 with additional N-terminal SM residues; GST (TEV site) (N); His6 (TEV site) (N, cleaved yes); made in house; host or cells: SMARCA4^BD: Escherichia coli BL21(DE3)
VCB: PROTAC: SMARCA4^BD ternary complex, sequence (P51532 1448-1569): as the sequence (P51532 1448-1569) above
VCB: PROTAC: SMARCA4^BD ternary complex, sequence (P40337 54-213): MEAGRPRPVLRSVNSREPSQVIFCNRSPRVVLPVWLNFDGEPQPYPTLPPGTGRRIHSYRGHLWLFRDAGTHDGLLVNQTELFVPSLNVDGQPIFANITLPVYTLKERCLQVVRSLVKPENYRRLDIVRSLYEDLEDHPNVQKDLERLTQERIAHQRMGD
VCB: PROTAC: SMARCA4^BD ternary complex, sequence (Q15369 17-112 partner): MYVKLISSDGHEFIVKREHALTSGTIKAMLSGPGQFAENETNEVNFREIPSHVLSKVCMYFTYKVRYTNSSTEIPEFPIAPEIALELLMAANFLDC
VCB: PROTAC: SMARCA4^BD ternary complex, sequence (Q15370 1-104 partner): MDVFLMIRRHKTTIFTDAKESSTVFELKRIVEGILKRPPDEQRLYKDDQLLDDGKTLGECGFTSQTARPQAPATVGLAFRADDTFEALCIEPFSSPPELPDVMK

[6] = TR-FRET competition for SMARCA2BD, without VCB, mean ± SD, read-out: TR-FRET SMARCA2BD EC50
[7] = binary, PROTAC alone, individual replicates, read-out: SMARCA2 BD EC50
[8] = TR-FRET competition for SMARCA4BD, without VCB, mean ± SD, read-out: TR-FRET SMARCA4BD EC50
[9] = binary, PROTAC alone, individual replicates, read-out: SMARCA4 BD EC50
[10] = 4h, read-out: RKO (4h) SMARCA4 DC50
[11] = 18h, read-out: RKO (18h) SMARCA4 DC50
[12] = PROTAC + VCB, individual replicates, read-out: Ternary SMARCA4 BD EC50 (PROTAC + VCB)
[13] = TR-FRET competition for SMARCA4BD, + VCB, mean ± SD, read-out: TR-FRET Ternary SMARCA4BD EC50 (PROTAC + VCB)

| Structure (SMILES) | EC50 [1, 6] | EC50 [1, 7] | EC50 [2, 8] | EC50 [2, 9] | DC50 ([3]; RKO (4 h)) | DC50 ([3]; RKO (18 h)) | Dmax ([3]; RKO, RKO (18 h)) | DC50 [4, 10] | DC50 [4, 11] | EC50 [5, 12] | EC50 [5, 13] | SMARCA4 Dmax ([3]; RKO (18 h)) |
| --- | --- | --- | --- | --- | --- | --- | --- | --- | --- | --- | --- | --- |
| CN1CCC(c2ccc3c(c2)n(C2CCCC2)c2nc(=O)c4c(Br)cccc4n32)CC1 [compound 3] | 48 ± 17 nM | 41.5 nM (2×) and 50.5 nM (2×) and 46.7 nM (2×) and 58.6 nM (2×) and 54.9 nM and 55.3 nM (2×) and 61.9 nM and 60.8 nM and 59.4 nM and 56.4 nM (2×) and 58.5 nM and 55.9 nM and 44.1 nM (3×) and 66.1 nM and 65.6 nM and 59.3 nM and 60.7 nM and 64.2 nM and 61.1 nM (2×) and 63.1 nM (2×) and 72.4 nM and 76.3 nM and 46.2 nM (2×) and 47.7 nM (2×) and 84.8 nM and 89.7 nM and 32 nM and 34.9 nM and 57.7 nM and 57.6 nM and 55.4 nM and 26.3 nM and 29.8 nM and 46.1 nM and 26.7 nM and 39.1 nM and 38.8 nM (2×) and 42.6 nM and 42.2 nM and 43 nM and 27.6 nM and 28.3 nM and 27.5 nM (2×) and 46 nM and 60.6 nM and 42.3 nM and 49.5 nM (2×) and 49.3 nM and 42.8 nM and 48.8 nM and 46.3 nM (2×) and 49.7 nM and 47.2 nM (2×) and 49 nM (2×) and 50.2 nM and 49.2 nM (3×) and 51.2 nM and 50.1 nM (2×) and 51.1 nM and 50.4 nM and 52.4 nM (2×) and 52.5 nM (2×) and 52 nM (2×) and 56.1 nM and 68 nM and 55.7 nM and 52.1 nM and 60.9 nM and 51.8 nM and 47 nM and 47.4 nM and 48.2 nM and 102 nM (2×) and 53.7 nM and 54.7 nM and 56.6 nM (2×) and 44.3 nM (2×) and 47.5 nM and 101 nM and 53.5 nM and 64.4 nM and 66.2 nM and 65.5 nM and 64.6 nM and 64.8 nM and 92.1 nM and 55.6 nM and 55.5 nM and 112 nM and 107 nM and 59.8 nM and 54.4 nM and 32.2 nM and 41.9 nM and 44.7 nM (2×) and 30.9 nM and 79.5 nM and 33.5 nM and 26.9 nM and 33.6 nM and 39.7 nM and 36.7 nM and 36.8 nM and 37.3 nM and 38.4 nM and 51.3 nM and 42.7 nM and 45.1 nM and 46.5 nM and 157 nM and 52.2 nM | 107 ± 29 nM | 95.4 nM and 105 nM and 124 nM and 115 nM and 117 nM and 113 nM (3×) and 121 nM and 114 nM and 81.2 nM and 90.5 nM and 95.1 nM and 82.4 nM and 86.5 nM and 90.1 nM and 86 nM and 90.3 nM (2×) and 78 nM and 69.2 nM and 191 nM and 161 nM and 107 nM and 99.4 nM and 89 nM and 90.2 nM and 81.3 nM and 182 nM and 188 nM and 131 nM and 128 nM and 126 nM and 132 nM and 94.7 nM and 129 nM and 86.8 nM and 102 nM and 109 nM and 112 nM | > 25000 nM | 11400 nM | 82 ± 32% | > 25000 nM | 6980 nM and 15500 nM and 13600 nM | 101 nM and 109 nM (2×) and 108 nM and 118 nM (2×) and 103 nM and 112 nM and 115 nM (2×) and 104 nM and 76.8 nM and 91.4 nM and 77.5 nM and 72.4 nM and 95.9 nM and 122 nM and 90.9 nM and 83.6 nM and 106 nM and 89.9 nM and 93.4 nM (2×) and 86.9 nM and 97.7 nM and 84.8 nM and 184 nM and 180 nM and 117 nM and 86 nM and 87.9 nM and 87.4 nM and 189 nM and 202 nM and 148 nM and 124 nM and 121 nM and 136 nM and 97.4 nM and 130 nM and 99.2 nM and 105 nM and 102 nM | 108 ± 30 nM |  |
| Cc1ncsc1-c1ccc([C@H](COC(C)(C)CN2CCC(c3ccc4c(c3)n(C3CCCC3)c3nc(=O)c5c(Br)cccc5n43)CC2)NC(=O)[C@@H]2C[C@@H](O)CN2C(=O)[C@@H](NC(=O)C2(F)CC2)C(C)(C)C)cc1 [compound 28] | 130 ± 18 nM | 132 nM and 140 nM and 145 nM and 139 nM and 134 nM and 133 nM and 154 nM and 106 nM and 96.3 nM and 137 nM | 240 ± 55 nM | 300 nM and 283 nM and 195 nM and 201 nM | > 25000 nM | 159 ± 57 nM |  |  | 101 nM and 200 nM (2×) and > 833 nM | 99.7 nM and 76.7 nM and 88 nM and 49.7 nM | 76 ± 21 nM | 14 ± 42% |
| CN1CCN(c2nc(=O)c3c(F)cccc3o2)CC1 [compound 17] |  | > 10000 nM |  | > 10000 nM | > 25000 nM | > 25000 nM |  | > 25000 nM | > 25000 nM | > 10000 nM |  |  |
| CN1CCN(c2nc(=O)c3ccccc3o2)CC1 [compound 14] |  | > 10000 nM |  | > 10000 nM | > 25000 nM | > 25000 nM |  | > 25000 nM | > 25000 nM | > 10000 nM |  |  |
